These results are taken from ChEMBL document CHEMBL5465560, “Selectivity Literature for EUbOPEN Chemogenomic Library” (2024).

The structures appear in SMILES notation.

Experiment [1] has as its target T1, MAP kinase-activated protein kinase 5 (Homo sapiens) (UniProt Q8IW41).
T1 sequence (whole entry): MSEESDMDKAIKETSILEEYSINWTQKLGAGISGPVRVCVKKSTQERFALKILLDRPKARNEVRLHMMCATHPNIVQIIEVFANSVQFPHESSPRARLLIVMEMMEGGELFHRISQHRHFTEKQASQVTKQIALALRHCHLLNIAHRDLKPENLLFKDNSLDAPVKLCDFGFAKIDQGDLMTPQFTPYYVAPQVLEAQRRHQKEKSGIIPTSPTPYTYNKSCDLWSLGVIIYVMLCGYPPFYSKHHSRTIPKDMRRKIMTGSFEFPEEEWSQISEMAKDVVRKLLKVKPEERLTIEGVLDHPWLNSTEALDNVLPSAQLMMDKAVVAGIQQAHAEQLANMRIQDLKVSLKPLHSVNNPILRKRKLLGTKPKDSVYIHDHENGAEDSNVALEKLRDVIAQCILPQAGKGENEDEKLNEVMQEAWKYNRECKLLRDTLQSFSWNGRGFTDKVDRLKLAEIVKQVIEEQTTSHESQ
The experiment is described as follows: Selectivity interaction (Kinase panel (Z-LYTE Assay)) EUB0001632a MAPKAPK5. The settings on record: at 10 µM.

Experiment [2] has as its target MAP/microtubule affinity-regulating kinase 3 (Homo sapiens) (UniProt P27448). The experiment is described as follows: Selectivity interaction (ActivX KiNativ screen (ex vivo kinase selectivity in human PBMCs)) EUB0001619a MARK3. The experiment is classed as cell-based. The settings on record: PBMC, at 1 µM.
The target of experiment [3] is Serine/threonine-protein kinase N2 (Homo sapiens, UniProt Q16513). The experiment in a line: Selectivity interaction (KinomeScan (DiscoverX)) EUB0000695a PKN2. The settings on record: at 100 nM.
Experiment [4] concerns Tyrosine-protein kinase ABL1 (Homo sapiens), P00519 [F317L]. The settings on record: at 10 µM.
Experiment [5] has as its target T2, Rhodopsin kinase GRK1 (Homo sapiens) (UniProt Q15835).
T2 sequence (whole entry): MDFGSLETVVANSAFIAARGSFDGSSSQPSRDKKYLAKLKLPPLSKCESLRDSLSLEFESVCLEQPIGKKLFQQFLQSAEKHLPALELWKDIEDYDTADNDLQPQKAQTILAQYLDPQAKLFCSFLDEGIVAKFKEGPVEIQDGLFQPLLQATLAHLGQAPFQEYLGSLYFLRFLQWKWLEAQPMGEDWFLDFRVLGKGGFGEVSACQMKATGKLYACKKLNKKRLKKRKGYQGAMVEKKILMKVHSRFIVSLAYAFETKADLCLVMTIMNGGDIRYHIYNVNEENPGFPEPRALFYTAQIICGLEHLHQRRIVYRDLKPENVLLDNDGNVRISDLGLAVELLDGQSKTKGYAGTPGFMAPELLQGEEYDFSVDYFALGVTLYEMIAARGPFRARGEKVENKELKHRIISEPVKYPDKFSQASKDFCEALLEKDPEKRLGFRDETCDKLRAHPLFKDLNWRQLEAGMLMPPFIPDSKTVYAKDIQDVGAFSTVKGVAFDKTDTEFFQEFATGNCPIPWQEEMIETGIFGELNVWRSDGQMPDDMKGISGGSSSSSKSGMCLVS
The experiment in a line: Selectivity interaction (KinomeScan (DiscoverX)) EUB0000045b GRK1.

The target in experiment [6] is Rho-associated protein kinase 2 (Homo sapiens, UniProt O75116). The experiment is described as follows: Selectivity interaction (ProQinase) EUB0000171b ROCK2.
Sequence of Rho-associated protein kinase 2 (O75116 whole entry, looked up, canonical isoform): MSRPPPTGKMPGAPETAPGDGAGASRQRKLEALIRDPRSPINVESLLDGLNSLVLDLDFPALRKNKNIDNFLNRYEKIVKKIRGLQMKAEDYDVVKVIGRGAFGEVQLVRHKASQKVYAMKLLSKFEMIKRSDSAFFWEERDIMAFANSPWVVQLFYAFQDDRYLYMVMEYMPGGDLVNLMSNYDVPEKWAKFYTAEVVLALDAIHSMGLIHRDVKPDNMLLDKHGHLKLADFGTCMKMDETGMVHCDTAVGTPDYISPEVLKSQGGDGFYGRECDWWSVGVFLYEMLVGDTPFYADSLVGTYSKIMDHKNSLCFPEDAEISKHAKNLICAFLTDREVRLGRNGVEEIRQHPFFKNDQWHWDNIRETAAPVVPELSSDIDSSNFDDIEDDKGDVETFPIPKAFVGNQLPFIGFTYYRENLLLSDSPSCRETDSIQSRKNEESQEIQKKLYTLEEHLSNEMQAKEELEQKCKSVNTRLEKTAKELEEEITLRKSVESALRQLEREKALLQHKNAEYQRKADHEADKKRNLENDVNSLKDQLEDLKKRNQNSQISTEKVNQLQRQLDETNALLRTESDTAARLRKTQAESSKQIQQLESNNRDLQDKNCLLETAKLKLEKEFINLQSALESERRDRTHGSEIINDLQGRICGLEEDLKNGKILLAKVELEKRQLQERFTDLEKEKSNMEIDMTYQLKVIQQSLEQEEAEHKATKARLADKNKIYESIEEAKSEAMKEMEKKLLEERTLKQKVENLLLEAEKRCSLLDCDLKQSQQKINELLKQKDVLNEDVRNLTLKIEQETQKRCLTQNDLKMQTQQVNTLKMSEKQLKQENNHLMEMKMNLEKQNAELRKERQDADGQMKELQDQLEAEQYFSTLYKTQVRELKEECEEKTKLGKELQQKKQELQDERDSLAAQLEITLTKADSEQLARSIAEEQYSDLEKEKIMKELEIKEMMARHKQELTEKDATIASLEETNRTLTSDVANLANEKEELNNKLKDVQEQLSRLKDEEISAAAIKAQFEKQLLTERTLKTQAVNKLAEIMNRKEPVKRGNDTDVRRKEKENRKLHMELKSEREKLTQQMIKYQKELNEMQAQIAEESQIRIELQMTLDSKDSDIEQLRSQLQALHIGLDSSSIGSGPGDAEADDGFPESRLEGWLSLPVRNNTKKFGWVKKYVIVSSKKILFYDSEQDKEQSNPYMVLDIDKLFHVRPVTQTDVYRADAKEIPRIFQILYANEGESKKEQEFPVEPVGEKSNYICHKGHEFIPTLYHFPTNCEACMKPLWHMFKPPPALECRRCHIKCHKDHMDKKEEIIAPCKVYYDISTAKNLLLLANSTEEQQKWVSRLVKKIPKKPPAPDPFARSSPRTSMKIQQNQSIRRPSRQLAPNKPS
The target of experiment [7] is Casein kinase I isoform gamma-2 (Homo sapiens) (UniProt P78368). The experiment in a line: Selectivity interaction (ProQinase) EUB0000171b CSNK1G2.
Sequence of Casein kinase I isoform gamma-2 (Homo sapiens) (P78368 whole entry, looked up, canonical isoform): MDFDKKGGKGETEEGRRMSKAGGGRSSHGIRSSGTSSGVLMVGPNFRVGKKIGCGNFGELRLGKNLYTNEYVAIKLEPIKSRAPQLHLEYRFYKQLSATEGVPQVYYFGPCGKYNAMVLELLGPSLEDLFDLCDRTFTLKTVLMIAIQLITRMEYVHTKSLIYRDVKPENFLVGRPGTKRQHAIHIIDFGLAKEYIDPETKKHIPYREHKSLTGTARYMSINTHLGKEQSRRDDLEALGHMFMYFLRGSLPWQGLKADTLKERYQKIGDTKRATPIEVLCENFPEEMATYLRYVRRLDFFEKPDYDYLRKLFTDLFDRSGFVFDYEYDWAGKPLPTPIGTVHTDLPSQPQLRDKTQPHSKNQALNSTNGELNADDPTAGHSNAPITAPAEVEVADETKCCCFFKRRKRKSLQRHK
Experiment [8] addresses T3, NUAK family SNF1-like kinase 1 (Homo sapiens) (UniProt O60285).
T3 sequence (whole entry): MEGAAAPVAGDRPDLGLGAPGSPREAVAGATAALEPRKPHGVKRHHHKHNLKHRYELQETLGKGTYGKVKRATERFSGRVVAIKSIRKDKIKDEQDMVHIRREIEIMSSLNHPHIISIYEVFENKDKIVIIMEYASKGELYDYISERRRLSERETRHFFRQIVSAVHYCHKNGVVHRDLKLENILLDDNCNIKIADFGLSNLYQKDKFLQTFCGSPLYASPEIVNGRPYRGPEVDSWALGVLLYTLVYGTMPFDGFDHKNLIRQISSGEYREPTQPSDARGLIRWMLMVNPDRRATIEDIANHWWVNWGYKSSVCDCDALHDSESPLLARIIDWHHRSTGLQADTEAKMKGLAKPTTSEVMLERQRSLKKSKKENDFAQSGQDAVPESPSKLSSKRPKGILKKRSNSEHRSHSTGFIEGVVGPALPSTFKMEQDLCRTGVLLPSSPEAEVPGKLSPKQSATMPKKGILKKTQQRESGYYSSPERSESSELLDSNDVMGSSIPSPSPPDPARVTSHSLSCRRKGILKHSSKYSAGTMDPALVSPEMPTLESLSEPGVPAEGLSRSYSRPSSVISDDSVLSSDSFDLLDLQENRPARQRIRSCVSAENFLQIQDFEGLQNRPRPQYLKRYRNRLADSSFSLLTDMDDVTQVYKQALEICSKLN
The experiment in a line: Selectivity interaction (KinomeScan (DiscoverX)) EUB0001049a NUAK1. The settings on record: at 1 µM.

Experiment [9] deals with RAC-gamma serine/threonine-protein kinase (Homo sapiens, UniProt Q9Y243). The experiment in a line: Selectivity interaction (Upstate Kinase Profiler service (Millipore)) EUB0000056c AKT3. As to conditions: at 1 µM.
Sequence of RAC-gamma serine/threonine-protein kinase (Q9Y243 whole entry): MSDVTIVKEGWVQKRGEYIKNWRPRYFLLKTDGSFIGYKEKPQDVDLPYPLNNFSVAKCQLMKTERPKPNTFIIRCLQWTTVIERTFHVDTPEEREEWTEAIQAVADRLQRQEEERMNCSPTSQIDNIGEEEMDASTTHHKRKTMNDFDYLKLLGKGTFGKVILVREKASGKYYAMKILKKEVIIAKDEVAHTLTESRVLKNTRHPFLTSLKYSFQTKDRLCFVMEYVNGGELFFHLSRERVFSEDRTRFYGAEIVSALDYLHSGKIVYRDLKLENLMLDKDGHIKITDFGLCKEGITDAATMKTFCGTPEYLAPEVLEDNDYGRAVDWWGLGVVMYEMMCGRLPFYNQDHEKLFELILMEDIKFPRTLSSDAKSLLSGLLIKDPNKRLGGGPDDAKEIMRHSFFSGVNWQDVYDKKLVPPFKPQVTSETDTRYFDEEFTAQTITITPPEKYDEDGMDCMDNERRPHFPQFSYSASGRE
For experiment [10], the target named is T4, Serine/threonine-protein kinase 17A (Homo sapiens) (UniProt Q9UEE5).
T4 sequence (whole entry): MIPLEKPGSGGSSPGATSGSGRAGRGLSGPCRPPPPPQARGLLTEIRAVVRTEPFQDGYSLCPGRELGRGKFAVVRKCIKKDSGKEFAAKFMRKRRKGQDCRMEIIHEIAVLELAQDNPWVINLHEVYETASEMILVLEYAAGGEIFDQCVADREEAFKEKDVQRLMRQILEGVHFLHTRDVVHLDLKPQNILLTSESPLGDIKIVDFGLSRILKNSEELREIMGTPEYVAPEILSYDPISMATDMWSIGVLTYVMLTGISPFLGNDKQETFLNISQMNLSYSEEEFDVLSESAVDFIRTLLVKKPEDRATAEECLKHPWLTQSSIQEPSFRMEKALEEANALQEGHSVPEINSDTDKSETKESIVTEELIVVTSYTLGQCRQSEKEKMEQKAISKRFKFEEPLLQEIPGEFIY
The experiment in a line: Selectivity interaction (KinomeScan (DiscoverX)) EUB0000092b STK17A. As to conditions: at 10 µM.

Experiment [11] addresses RAF proto-oncogene serine/threonine-protein kinase (Homo sapiens) (UniProt P04049). The experiment is described as follows: Selectivity interaction (Kinase panel (KiNativ target engagement assay in Jurkat cells)) EUB0001635a RAF1. The experiment is classed as cell-based. The settings on record: Selectivity number of off-targets 0.0, Selectivity number of targets 233.0, Source Knowledge https://www.sciencedirect.com/science/article/pii/S2451945619300674?via%3Dihub, at 1 µM.

Experiment [12] concerns the target 1-phosphatidylinositol 3-phosphate 5-kinase (Homo sapiens) (UniProt Q9Y2I7). The experiment is described as follows: Selectivity interaction (Kinase panel (KiNativ target engagement assay in Jurkat cells)) EUB0001635a PIKFYVE. The experiment is classed as cell-based. The settings on record: Selectivity number of off-targets 0.0, Selectivity number of targets 233.0, Source Knowledge https://www.sciencedirect.com/science/article/pii/S2451945619300674?via%3Dihub, at 1 µM.

Sequence of 1-phosphatidylinositol 3-phosphate 5-kinase (Homo sapiens) (Q9Y2I7 whole entry): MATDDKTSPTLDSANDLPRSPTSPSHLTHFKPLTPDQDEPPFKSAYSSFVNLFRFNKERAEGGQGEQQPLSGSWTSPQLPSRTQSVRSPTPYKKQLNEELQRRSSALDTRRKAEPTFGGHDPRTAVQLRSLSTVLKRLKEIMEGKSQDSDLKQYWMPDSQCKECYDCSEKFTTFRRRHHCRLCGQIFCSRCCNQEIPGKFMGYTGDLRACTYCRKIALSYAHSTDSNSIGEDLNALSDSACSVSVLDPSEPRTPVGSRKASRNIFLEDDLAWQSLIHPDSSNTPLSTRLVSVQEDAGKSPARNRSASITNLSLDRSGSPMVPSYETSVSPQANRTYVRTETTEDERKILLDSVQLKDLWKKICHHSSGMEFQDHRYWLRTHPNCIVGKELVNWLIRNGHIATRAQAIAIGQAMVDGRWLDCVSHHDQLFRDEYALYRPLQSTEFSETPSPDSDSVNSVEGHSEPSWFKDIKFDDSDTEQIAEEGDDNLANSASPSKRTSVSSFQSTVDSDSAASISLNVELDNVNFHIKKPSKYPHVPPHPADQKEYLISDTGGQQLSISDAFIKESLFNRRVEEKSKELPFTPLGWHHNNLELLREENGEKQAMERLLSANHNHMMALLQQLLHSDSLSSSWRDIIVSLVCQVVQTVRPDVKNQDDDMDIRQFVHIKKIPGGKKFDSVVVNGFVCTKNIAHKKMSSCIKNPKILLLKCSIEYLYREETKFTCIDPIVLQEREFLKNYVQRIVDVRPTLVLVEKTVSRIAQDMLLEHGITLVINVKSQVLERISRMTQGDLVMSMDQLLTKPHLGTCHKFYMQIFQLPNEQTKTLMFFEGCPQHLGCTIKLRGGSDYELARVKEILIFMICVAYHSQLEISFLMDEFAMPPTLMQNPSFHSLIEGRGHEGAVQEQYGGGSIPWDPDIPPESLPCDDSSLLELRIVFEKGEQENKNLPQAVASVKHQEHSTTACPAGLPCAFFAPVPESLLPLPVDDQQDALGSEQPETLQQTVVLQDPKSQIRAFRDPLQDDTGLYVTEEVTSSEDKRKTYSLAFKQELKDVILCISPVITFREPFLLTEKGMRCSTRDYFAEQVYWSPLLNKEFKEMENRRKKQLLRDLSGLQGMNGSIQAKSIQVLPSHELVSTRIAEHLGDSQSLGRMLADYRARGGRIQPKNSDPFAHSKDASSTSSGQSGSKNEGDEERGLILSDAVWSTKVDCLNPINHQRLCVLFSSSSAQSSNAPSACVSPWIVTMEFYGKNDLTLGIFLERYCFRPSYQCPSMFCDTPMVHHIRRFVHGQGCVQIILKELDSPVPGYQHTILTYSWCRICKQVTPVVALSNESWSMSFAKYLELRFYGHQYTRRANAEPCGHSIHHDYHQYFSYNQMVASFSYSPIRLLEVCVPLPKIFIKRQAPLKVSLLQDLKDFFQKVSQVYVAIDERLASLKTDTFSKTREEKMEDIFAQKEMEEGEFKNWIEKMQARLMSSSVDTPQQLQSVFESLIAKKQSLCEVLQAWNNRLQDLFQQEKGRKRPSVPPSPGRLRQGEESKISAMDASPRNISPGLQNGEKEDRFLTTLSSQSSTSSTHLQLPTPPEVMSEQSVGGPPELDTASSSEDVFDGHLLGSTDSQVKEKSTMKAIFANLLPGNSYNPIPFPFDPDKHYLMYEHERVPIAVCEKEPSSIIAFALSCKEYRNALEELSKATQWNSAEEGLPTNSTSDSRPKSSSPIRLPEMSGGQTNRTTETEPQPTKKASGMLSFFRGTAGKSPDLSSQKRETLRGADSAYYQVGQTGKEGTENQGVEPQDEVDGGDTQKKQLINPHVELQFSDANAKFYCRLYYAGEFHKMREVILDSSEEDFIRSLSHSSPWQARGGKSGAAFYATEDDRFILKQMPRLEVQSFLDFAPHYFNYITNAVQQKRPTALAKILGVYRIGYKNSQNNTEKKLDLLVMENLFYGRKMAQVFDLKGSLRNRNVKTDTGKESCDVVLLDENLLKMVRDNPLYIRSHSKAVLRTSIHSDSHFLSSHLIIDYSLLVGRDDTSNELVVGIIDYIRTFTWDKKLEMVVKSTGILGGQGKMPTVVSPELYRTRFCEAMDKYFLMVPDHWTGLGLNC
Sequence of RAF proto-oncogene serine/threonine-protein kinase (Homo sapiens) (P04049 whole entry): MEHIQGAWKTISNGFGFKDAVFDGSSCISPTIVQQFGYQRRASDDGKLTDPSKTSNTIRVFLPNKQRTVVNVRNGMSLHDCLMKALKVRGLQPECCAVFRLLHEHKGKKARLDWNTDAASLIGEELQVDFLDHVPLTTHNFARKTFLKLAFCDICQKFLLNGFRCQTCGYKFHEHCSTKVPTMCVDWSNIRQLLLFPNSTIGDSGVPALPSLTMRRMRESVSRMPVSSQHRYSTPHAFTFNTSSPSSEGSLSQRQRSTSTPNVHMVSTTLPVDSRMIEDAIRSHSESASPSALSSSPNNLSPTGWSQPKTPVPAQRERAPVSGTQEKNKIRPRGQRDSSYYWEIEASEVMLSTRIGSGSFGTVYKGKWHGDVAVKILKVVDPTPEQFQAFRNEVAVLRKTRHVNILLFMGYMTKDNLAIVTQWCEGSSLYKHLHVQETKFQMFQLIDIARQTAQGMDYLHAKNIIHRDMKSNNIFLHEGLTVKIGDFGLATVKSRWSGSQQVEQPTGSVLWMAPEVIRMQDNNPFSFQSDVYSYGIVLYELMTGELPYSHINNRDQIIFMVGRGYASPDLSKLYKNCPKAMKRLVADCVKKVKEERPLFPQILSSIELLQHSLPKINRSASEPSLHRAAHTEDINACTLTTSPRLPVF

`Cn1cc(-n2cnc3c(NCc4nc5cc(Cl)c(Cl)cc5[nH]4)nc(N4CCOCC4)nc32)cn1` displayed a % of control in [1] of 7.02%. In [2], `N#Cc1cccc(-c2c[nH]c3ncnc(N4CCOCC4)c23)c1` returned a % of inhibition of 24%.

As to `Cc1cc(F)c(C(=O)Nc2cccc(-c3nncn3C(C)C)n2)cc1-n1cnc(C2CC2)c1`, the % of control in [3] stood at 63%. Compound `Cc1cc([C@@H](C)Nc2ccccc2C(=O)O)c2nc(N3CCOCC3)cc(=O)n2c1` [AZD-6482] came in with a % of control in experiment [4] of 89%. As for `C=CC(=O)Nc1cc(-n2c(=O)ccc3cnc4ccc(-c5ccc(NS(C)(=O)=O)cc5)cc4c32)ccc1C`, the % of control in experiment [5] (at 1 µM) turned out to be 100%; in experiment [5] (at 10 µM), 99%.

Regarding `C=CC(=O)Nc1cccc(C(=O)Nc2ccc(Nc3cc(-c4[nH]c(SC)nc4C)ccn3)cc2)c1`, the % of control stood at 95% in experiment [6] (at 1 µM), 75% in experiment [6] (at 5 µM), 22% in [7] (at 1 µM) and 5% in [7] (at 5 µM). `COc1cc(Nc2nc(C)cc(-c3cnn4nc(OC)ccc34)n2)cc(C(F)(F)F)c1` came in with a % of control in experiment [8] of 100%. In experiment [9], `Cc1ccc(-c2ccc3c(ccc4sc5c(c43)NC[C@@H](C)NC5=O)n2)cn1` showed a % of inhibition of 0%.

The compound `CCC(=O)N1CCN(c2ccc(-n3c(=O)ccc4cnc5ccc(-c6cnc7ccccc7c6)cc5c43)cc2C(F)(F)F)CC1` yielded a % of control in [10] of 93%.

For `C=CC(=O)Nc1ccc(C(=O)Nc2[nH]nc3c2CN(C(=O)N[C@H](CN(C)C)c2ccccc2)C3(C)C)cc1`, the % of engagement in experiment [11] is -6.3%; in experiment [12] it was -3.5%.
